In patent publication US5286895A, “Cholesterol lowering compounds” (Merck & Co., Inc., priority 1992, dated 1994):
pIC50: −log10 of the molar value.

How the values were obtained:
cholesterol synthesis = assay: Measurement of inhibition of cholesterol synthesis in mice ([3H]mevalonolactone incorporation in liver); format: in vivo; details: female Swiss-Webster mice, subcutaneous
Procedure: Female Swiss-Webster mice, approximately 25 grams, were dosed subcutaneously with the test compound or just with saline for controls. The tri-sodium salt of Compound A was dissolved in 0.9% NaCl and administered in a volume of less than 0.1 ml. Thirty minutes after receiving a dose of the test compound or saline for the controls, the mice were subcutaneously administered a dose of 0.5 uCi of R,S-[5-^3 H]mevalonolactone (35 Ci/mmol). The tracer mevalonolactone was dissolved in 0.9% NaCl and administered in a volume of 0.05 ml. Thirty minutes after receiving the dose of mevalonolactone, the animals were euthanized, and the livers were removed and saponified in a solution of 4 ml of 40% KOH and 2 ml of 95% ethanol overnight at 65° C. The saponified livers were extracted with two 5 ml volumes of petroleum ether. Incorporation of ^3 H into this petroleum ether fraction was used to measure cholesterol synthesis. Inhibition of cholesterol synthesis was determined by comparing the incorporation of ^3 H in the petroleum ether fraction in control animals to the incorporation in the petroleum ether fraction in the compound test animals.

squalene synthetase = molecular target: T1, squalene synthetase (Rattus norvegicus, UniProt Q02769); assay: Squalene synthetase assay (rat liver microsomes, [4-14C]farnesyl-pyrophosphate); format: biochemical; details: 30° C., 20 minutes, read-out: IC50, squalene synthetase inhibition
T1 construct: The resulting microsomal pellet was resuspended in a volume of the above homogenizing buffer; from tissue; host or cells: rat liver microsomes (male Charles River CD rats fed 0.1% lovastatin)
T1 sequence (Q02769 1-416): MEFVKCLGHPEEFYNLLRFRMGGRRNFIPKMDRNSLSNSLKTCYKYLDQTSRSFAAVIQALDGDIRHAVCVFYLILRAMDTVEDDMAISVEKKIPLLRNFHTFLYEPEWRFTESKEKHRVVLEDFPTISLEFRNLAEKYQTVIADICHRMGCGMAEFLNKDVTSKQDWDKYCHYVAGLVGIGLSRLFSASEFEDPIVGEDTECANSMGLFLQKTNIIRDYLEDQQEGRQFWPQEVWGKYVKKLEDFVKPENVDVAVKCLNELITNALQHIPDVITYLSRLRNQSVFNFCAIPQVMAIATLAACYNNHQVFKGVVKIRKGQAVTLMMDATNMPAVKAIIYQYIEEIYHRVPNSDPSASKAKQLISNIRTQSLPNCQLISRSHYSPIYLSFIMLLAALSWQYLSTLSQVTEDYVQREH
Procedure: Male, Charles River CD rats (120 to 150 g) were fed a diet containing 0.1% lovastatin for 4 days. The livers from these rats were homogenized in 5 volumes (ml/g) of ice cold 50 mM HEPES (4-(2-hydroxyethyl)-1-piperazine-ethanesulfonic acid), 5 mM EDTA(ethylenediaminetetraacetic acid) pH 7.5 with a Potter-Elvehjem type tissue grinder. The homogenate was centrifuged twice at 20,000× g for 15 minutes at 4° C., discarding the pellet each time. The supernatant was then centrifuged at 100,000× g for 1 hour at 4° C. The resulting microsomal pellet was resuspended in a volume of the above homogenizing buffer equal to one-fifth the volume of the original homogenate. This microsomal preparation has a protein concentration of about 7 mg/ml. The microsomal suspensions were stored in aliquots at -70° C. Squalene synthetase activity in these aliquots is stable for at least several months.
Reaction were performed in 16×125 mm screw cap test tubes. A batch assay mix was prepared from the following solution:
This assay mix was degassed under a vacuum and flushed with N2. […] Ten ml of scintillation fluid was added to the heptane solution and radioactivity was determined by liquid scintillation counting.
Percent inhibition is calculated by the formula: [formula]
IC50 values were determined by plotting the log of the concentration of the test compound versus the percentage inhibition.

C/C(=C\C(C)Cc1ccccc1)CCCCCC(C(=O)O)C(O)(CC(=O)O)C(=O)O (stereo not drawn) [Compound A]
ED50 (cholesterol synthesis; Mus musculus, sc, tri-sodium salt in 0.9% NaCl, dosed 30 min before [3H]mevalonolactone): ~15 mg/kg | inhibition of cholesterol synthesis in mice (in words) (cholesterol synthesis): potent inhibitor of cholesterol synthesis in mice | pIC50 (squalene synthetase): ~6.52
